The structures appear in SMILES notation.

The assay concerns Streptococcus pyogenes (ATCC# 97-03 14289). The experiment in a line: Anti-microbial screen (percent inhibition of growth, OD 570 nm). The class given is cell-based. The following applies: Conc 0.1776 mg ml. As to the method:
Streptococcus pyogenes (ATCC# 97-03 14289) was grown in Todd Hewitt Broth (THB) (Difco Laboratories #0492-17-6) overnight until reaching an optical density of (OD=0.636@570 nm) by reading 0.1 ml in a 96 well microtiter plate in a Molecular Devices Thermomax. This preparation was kept frozen as stocks in 30% v/v glycerol in 1.5 ml aliquots at […] until use. Prior to experiments, 6 ml aliquots were thawed and diluted into 50 ml 2×THB. 60 ul of this dilution was added to 92 wells of microtiter plate. To three wells THB (200 ul) was added to serve as a blank and a sterility control. Test compounds in DMSO and appropriate concentrations of DMSO were added to Growth/Solvent Controls at 0 time. Plates were read at 0 time at 570 nm in the Molecular Devices plate reader to obtain compounds correction factors for insoluble or colored compounds. Plates were read again at 4 hours.
Percent inhibition is calculated with the following formula:
Color correct=O.D. 0 hr - Blank 0 hr)-(Solvent Control Ohr - Blank 0 hr) [formula]

[1] abbreviates: Spy4H: Streptococcus pyogenes, read at 4 hours, OD 570 nm.
Where [2] appears, read: Streptococcus pyogenes, Assay Spy4H, plates read at 570 nm at 0 time and at 4 hours.

`Cc1ccc(CN(Cc2cccc(O)c2)/C(=N/c2ccc(Cl)c([N+](=O)[O-])c2)Sc2cccc(C)c2)cc1` [Cmpd 463]: at 177.6 µg/mL the inhibition of growth under setting [1] was 86.7%.
In turn, `Cc1ccc(CN(Cc2cccc(O)c2)/C(=N/c2ccccc2[N+](=O)[O-])Sc2cccc(C)c2)cc1` [Cmpd 466] had an inhibition of growth at 177.6 µg/mL under setting [1] of 69.7%.
Regarding `COc1ccc(C)cc1/N=C(\Sc1cccc(C)c1)N(Cc1ccc(C)cc1)Cc1cccc(O)c1` [Cmpd 469], under setting [2], 177.6 µg/mL produced 53% inhibition of growth.
As to `Cc1ccc(CN(Cc2cccc(O)c2)/C(=N\c2ccc(Cl)c(C(F)(F)F)c2)Sc2cccc(C)c2)cc1` [Cmpd 473], the inhibition of growth at 177.6 µg/mL under setting [1] was 57.6%.
The compound `Cc1ccc(S/C(=N/c2ccc(C(F)(F)F)cc2)N(Cc2ccccc2)Cc2ccc(O)cc2)c(C)c1` [Cmpd 487] had an inhibition of growth at 177.6 µg/mL under setting [1] of 82.8%.
The compound `Cc1ccc(S/C(=N\c2cc(Cl)cc(Cl)c2)N(Cc2ccccc2)Cc2ccc(O)cc2)c(C)c1` [Cmpd 493] registered an inhibition of growth at 177.6 µg/mL under setting [2] of 55.6%.
Turning to `Cc1ccc(S/C(=N/c2ccc(Cl)c([N+](=O)[O-])c2)N(Cc2ccccc2)Cc2ccc(O)cc2)c(C)c1` [Cmpd 503], the inhibition of growth at 177.6 µg/mL under setting [2] was determined as 57.3%.
Regarding `Cc1ccc(S/C(=N/c2ccc(Cl)c(C(F)(F)F)c2)N(Cc2ccccc2)Cc2ccc(O)cc2)c(C)c1` [Cmpd 513], the inhibition of growth at 177.6 µg/mL under setting [2] turned out to be 52.9%.
`Cc1cccc(S/C(=N/Cc2ccccc2)N(Cc2cccc(O)c2)CC(C)C)c1` [Cmpd 521]: under setting [2], the inhibition of growth at 177.6 µg/mL was found to be 50.6%.
Under setting [2], `Cc1cccc(C/N=C(/Sc2cccc(C)c2)N(Cc2cccc(O)c2)CC(C)C)c1` [Cmpd 522] showed an inhibition of growth at 177.6 µg/mL of 54.6%.
`Cc1cccc(S/C(=N/Cc2ccc(F)cc2)N(Cc2cccc(O)c2)CC(C)C)c1` [Cmpd 524] showed an inhibition of growth at 177.6 µg/mL under setting [1] of 89.5%.
`Cc1cccc(S/C(=N/c2cccc(C(F)(F)F)c2)N(Cc2cccc(O)c2)CC(C)C)c1` [Cmpd 526] yielded an inhibition of growth at 177.6 µg/mL under setting [2] of 50%.
`Cc1cccc(S/C(=N/c2ccc(C(F)(F)F)cc2)N(Cc2cccc(O)c2)CC(C)C)c1` [Cmpd 527] registered an inhibition of growth at 177.6 µg/mL under setting [1] of 96.4%.
In turn, `Cc1cccc(S/C(=N/c2cc(Cl)cc(Cl)c2)N(Cc2cccc(O)c2)CC(C)C)c1` [Cmpd 533] showed an inhibition of growth at 177.6 µg/mL under setting [2] of 52%.
As to `COc1ccc(C)cc1/N=C(/Sc1cccc(C)c1)N(Cc1cccc(O)c1)CC(C)C` [Cmpd 549], at 177.6 µg/mL the inhibition of growth under setting [1] was 62.9%.
The same measure, in the same setting: the result for `COCCN(Cc1ccc(O)cc1)/C(=N\c1cc(Cl)cc(Cl)c1)Sc1ccc(C)cc1` [Cmpd 653] reads 80.2%.
Under setting [2], `CCc1cccc(/N=C(/Sc2ccc(C)cc2)N(CCOC)Cc2ccc(O)cc2)c1` [Cmpd 658] gave an inhibition of growth at 177.6 µg/mL of 53%.
Same read-out and setting: the result for `COCCN(Cc1ccc(O)cc1)/C(=N\c1ccc(Cl)c([N+](=O)[O-])c1)Sc1ccc(C)cc1` [Cmpd 663] reads 54.8%.
The compound `COCCN(Cc1ccc(O)cc1)/C(=N\c1ccc(Cl)c(C(F)(F)F)c1)Sc1ccc(C)cc1` [Cmpd 673] yielded an inhibition of growth at 177.6 µg/mL under setting [1] of 72.8%.
Compound `COCCN(Cc1ccc(O)cc1)/C(=N\c1ccc(F)c(F)c1)Sc1ccc(C)cc1` [Cmpd 676] returned an inhibition of growth at 177.6 µg/mL under setting [1] of 87.5%.
Still for that read-out and setting: with `Cc1cccc(S/C(=N\Cc2ccc(F)cc2)N(CCc2ccc(Cl)cc2)Cc2cccc(O)c2)c1` [Cmpd 684] the figure was 94.1%; with `Cc1cccc(S/C(=N\c2cccc(C(F)(F)F)c2)N(CCc2ccc(Cl)cc2)Cc2cccc(O)c2)c1` [Cmpd 686], 68.4%; with `Cc1cccc(S/C(=N\c2ccc(F)c(Cl)c2)N(CCc2ccc(Cl)cc2)Cc2cccc(O)c2)c1` [Cmpd 694], 62.5%.
Still for that read-out and setting: the result for `Cc1cccc(S/C(=N\c2ccccc2[N+](=O)[O-])N(CCc2ccc(Cl)cc2)Cc2cccc(O)c2)c1` [Cmpd 706] reads 63.6%.
In turn, `COc1ccc(C)cc1/N=C(\Sc1cccc(C)c1)N(CCc1ccc(Cl)cc1)Cc1cccc(O)c1` [Cmpd 709] displayed an inhibition of growth at 177.6 µg/mL under setting [2] of 49.7%.
Consider `CCCCN(Cc1cccc(O)c1)/C(=N\Cc1ccc(F)cc1)Sc1ccccc1` [Cmpd 724], for which the inhibition of growth at 177.6 µg/mL under setting [1] is 83.3%.
`CCCCN(Cc1cccc(O)c1)/C(=N\c1ccc(C(F)(F)F)cc1)Sc1ccccc1` [Cmpd 727] registered an inhibition of growth at 177.6 µg/mL under setting [2] of 56.3%.
Under setting [1], `CCCCN(Cc1cccc(O)c1)/C(=N\c1cc(Cl)cc(Cl)c1)Sc1ccccc1` [Cmpd 733] returned an inhibition of growth at 177.6 µg/mL of 63.5%.
With `CCCCN(Cc1cccc(O)c1)/C(=N\c1ccc(F)c(Cl)c1)Sc1ccccc1` [Cmpd 734], under setting [1], the inhibition of growth at 177.6 µg/mL was 89.6%.
Same read-out and setting: the result for `CCCCN(Cc1cccc(O)c1)/C(=N\c1ccc(Cl)c([N+](=O)[O-])c1)Sc1ccccc1` [Cmpd 743] reads 64.2%; that for `CCCCN(Cc1cccc(O)c1)/C(=N\c1ccc(Cl)c(C(F)(F)F)c1)Sc1ccccc1` [Cmpd 753], 66%.
The compound `CCCCN(Cc1cccc(O)c1)/C(=N\c1ccc(F)c(F)c1)Sc1ccccc1` [Cmpd 756] came in with an inhibition of growth at 177.6 µg/mL under setting [1] of 71.9%.
For `COc1cccc(CN(Cc2ccc(O)cc2)/C(=N/c2ccc(C(F)(F)F)cc2)Sc2cccc(OC)c2)c1` [Cmpd 767], the inhibition of growth at 177.6 µg/mL under setting [2] was determined as 52.4%.
Under setting [1], `COc1cccc(CN(Cc2ccc(O)cc2)/C(=N/c2cc(Cl)cc(Cl)c2)Sc2cccc(OC)c2)c1` [Cmpd 773] came in with an inhibition of growth at 177.6 µg/mL of 68.4%.
In turn, `COc1cccc(CN(Cc2ccc(O)cc2)/C(=N/c2ccc(Cl)c([N+](=O)[O-])c2)Sc2cccc(OC)c2)c1` [Cmpd 783] displayed an inhibition of growth at 177.6 µg/mL under setting [2] of 54.5%.
Compound `COc1cccc(CN(Cc2ccc(O)cc2)/C(=N\c2ccc(Cl)c(C(F)(F)F)c2)Sc2cccc(OC)c2)c1` [Cmpd 793] registered an inhibition of growth at 177.6 µg/mL under setting [2] of 52.4%.
With `COc1cccc(CCN(Cc2cccc(O)c2)/C(=N/c2ccc(F)c(Cl)c2)Sc2ccccc2)c1` [Cmpd 814], the inhibition of growth at 177.6 µg/mL under setting [1] came to 57.8%.
In turn, `Cc1cccc(C/N=C(\Sc2ccccc2)N(Cc2cccc(O)c2)Cc2ccc(Cl)c(Cl)c2)c1` [Cmpd 842] gave an inhibition of growth at 177.6 µg/mL under setting [2] of 49.3%.
Same read-out and setting: the result for `Oc1cccc(CN(Cc2ccc(Cl)c(Cl)c2)/C(=N/c2cccc(F)c2)Sc2ccccc2)c1` [Cmpd 843] reads 53.4%; that for `Oc1cccc(CN(Cc2ccc(Cl)c(Cl)c2)/C(=N/c2cccc(C(F)(F)F)c2)Sc2ccccc2)c1` [Cmpd 846], 49.3%.
In the case of `Oc1cccc(CN(Cc2ccc(Cl)c(Cl)c2)/C(=N/c2ccc(C(F)(F)F)cc2)Sc2ccccc2)c1` [Cmpd 847], under setting [1], 177.6 µg/mL produced 90.3% inhibition of growth.
Under setting [2], `Oc1cccc(CN(Cc2ccc(Cl)c(Cl)c2)/C(=N/c2cccc(Cl)c2)Sc2ccccc2)c1` [Cmpd 852] showed an inhibition of growth at 177.6 µg/mL of 50%.
In the case of `Oc1cccc(CN(Cc2ccc(Cl)c(Cl)c2)/C(=N/c2cc(Cl)cc(Cl)c2)Sc2ccccc2)c1` [Cmpd 853], the inhibition of growth at 177.6 µg/mL under setting [1] was 60.2%.
`Oc1cccc(CN(Cc2ccc(Cl)c(Cl)c2)/C(=N/c2ccc(F)c(Cl)c2)Sc2ccccc2)c1` [Cmpd 854] yielded an inhibition of growth at 177.6 µg/mL under setting [2] of 55.8%.
Consider `O=[N+]([O-])c1ccccc1/N=C(\Sc1ccccc1)N(Cc1cccc(O)c1)Cc1ccc(Cl)c(Cl)c1` [Cmpd 866], for which, under setting [1], the inhibition of growth at 177.6 µg/mL is 60.8%.
The compound `COc1ccc(C)cc1/N=C(\Sc1ccccc1)N(Cc1cccc(O)c1)Cc1ccc(Cl)c(Cl)c1` [Cmpd 869] gave an inhibition of growth at 177.6 µg/mL under setting [1] of 62.2%.
For the compound `COc1cccc(CCN(Cc2ccc(O)cc2)/C(=N/c2ccc(F)c(Cl)c2)Sc2ccccc2)c1` [Cmpd 894], the inhibition of growth at 177.6 µg/mL under setting [1] amounted to 57.7%.
The same measure, in the same setting: with `COc1cccc(CCN(Cc2ccc(O)cc2)/C(=N/c2ccc(Cl)c([N+](=O)[O-])c2)Sc2ccccc2)c1` [Cmpd 903] the figure was 95.7%.
Still for that read-out and setting: with `COc1cccc(S/C(=N\Cc2cccc(C)c2)N(CCc2ccc(F)cc2)Cc2cccc(O)c2)c1` [Cmpd 922] the figure was 84.3%; with `COc1cccc(S/C(=N\c2cccc(F)c2)N(CCc2ccc(F)cc2)Cc2cccc(O)c2)c1` [Cmpd 923], 63.9%.
Same read-out and setting: with `COc1cccc(S/C(=N\c2cccc(C(F)(F)F)c2)N(CCc2ccc(F)cc2)Cc2cccc(O)c2)c1` [Cmpd 926] the figure was 96%.
`COc1cccc(S/C(=N\c2ccc(C(F)(F)F)cc2)N(CCc2ccc(F)cc2)Cc2cccc(O)c2)c1` [Cmpd 927] gave an inhibition of growth at 177.6 µg/mL under setting [2] of 49.4%.
`COc1cccc(S/C(=N\c2cc(Cl)cc(Cl)c2)N(CCc2ccc(F)cc2)Cc2cccc(O)c2)c1` [Cmpd 933] returned an inhibition of growth at 177.6 µg/mL under setting [1] of 59.8%.
Still for that read-out and setting: the result for `COc1cccc(S/C(=N\c2ccc(F)c(Cl)c2)N(CCc2ccc(F)cc2)Cc2cccc(O)c2)c1` [Cmpd 934] reads 94%; that for `COc1cccc(S/C(=N\c2ccc(C)c(Cl)c2)N(CCc2ccc(F)cc2)Cc2cccc(O)c2)c1` [Cmpd 935], 66.3%.
Under setting [2], `COc1cccc(/N=C(\Sc2cccc(OC)c2)N(CCc2ccc(F)cc2)Cc2cccc(O)c2)c1` [Cmpd 936] showed an inhibition of growth at 177.6 µg/mL of 56.3%.
`COc1cccc(S/C(=N\c2ccc(Cl)c([N+](=O)[O-])c2)N(CCc2ccc(F)cc2)Cc2cccc(O)c2)c1` [Cmpd 943] returned an inhibition of growth at 177.6 µg/mL under setting [2] of 50.8%.
For the compound `COc1cccc(S/C(=N/c2ccc(Cl)c(C(F)(F)F)c2)N(CCc2ccc(F)cc2)Cc2cccc(O)c2)c1` [Cmpd 953], the inhibition of growth at 177.6 µg/mL under setting [2] is 54.2%.
The compound `COCCN(Cc1ccc(O)cc1)/C(=N\c1cc(Cl)cc(Cl)c1)Sc1ccc(C)cc1C` [Cmpd 1053] showed an inhibition of growth at 177.6 µg/mL under setting [1] of 66%.

Values taken from patent US20040010036A1, “N,N, -Substituted s-Aryl-Isothioureas, N,N,N, -Substituted s-Aryl-Isothioureas and combinatorial libraries thereof” (priority 2002, published 2004).
